Measurements taken from US11459339B2, “Biaryl derivative, preparation method thereof and pharmaceutical application thereof” (Abbisko Therapeutics Co., Ltd., priority 2018, dated 2022).

Experiments:
[1] = target: interaction between PD-1 and PD-L1 (Homo sapiens (Human), UniProt Q9NZQ7); assay: PD1-PDL1 HTRF binding activity test (Cisbio PD-1/PD-L1 binding assay kit); conditions: read-out: PD1-PDL1 HTRF Binding Activity IC50
Description: A. PD1-PDL1 HTRF Binding Activity Test
The effect of compounds and positive compounds of the examples of the present invention on the interaction between PD-1 and PD-L1 was determined by the PD-1/PD-L1 binding assay kit from Cisbio (#64ICP01PEG or 64ICP01PEH). The detailed experimental process was as follows:
1. Pre-diluted compound solution, 4 μL of Tag1-PD-L1 and 4 μL of Tag2-PD1 were added to each well of a 384-well plate;
3. After incubated for 2 hrs at room temperature or overnight at 4° C., plates were read on Envision of Pelkin Elmer; and readings at 665 nm and 620 nm were recorded, and the ratio of the two readings was taken as a reading for each well;
4. The reading of each well after compound treatment was compared with the reading of DMSO treated wells to obtain the percent inhibition of the compound; and
5. IC50 values of compounds and positive compounds of the examples of the present invention were determined by non-linear regression analysis of percent inhibition at different compound concentrations.

[2] = target: interaction between PD-1 and PD-L1 expressed on cell surfaces (Homo sapiens (Human), UniProt Q9NZQ7); assay: Jurkat reporter gene cellular assay (Jurkat/NF-κB-luc/PD1 cells cocultured with Raji-PD-L1 cells, OKT-3 stimulation); format: cell-based; conditions: NF-κB-luc reporter activation fold, 6 hrs; read-out: Cell Activity EC50
Description: B. Jurkat Reporter Gene Cellular Assay
The effect of compounds of the examples of the present invention and positive compounds on the interaction between PD-1 and PD-L1 expressed on cell surfaces, and the related influence on T cell functions, were determined by a Jurkat reporter gene cellular assay.
Briefly, the reporter gene plasmid of NF-κB-luc and the plasmid of human PD-1 were transfected into Jurkat cells to establish a stably transfected cell line capable of stably expressing both PD-1 and NF-κB-Luc reporter genes; the expression level of PD-1 on the cell surface was confirmed by flow cytometry: and the expression of the reporter gene was confirmed via the response of the reporter gene stimulated by OKT-3 and Raiji cells.
In addition, the plasmid of human PD-L1 was transfected into Raji cells to obtain a cell line capable of stably expressing PD-L1. Jurkat/NF-κB-luc/PD1 cells and Raji-PD-L1 cells were then cocultured and stimulated with OKT-3. On this basis, the compounds were added, and the enhancement of the signal pathway of T cell activation by the inhibitory effect of the compounds on the interaction between PD-1 and PD-L1 was evaluated by readings of reporter gene responses. The specific experimental process was as follows:
2. 20 μL of Raji-PD-L1 cell suspension was added to each well with 5*10^4 cells for each well, and was incubated in an incubator for 20 min;
3. 20 μL of Jurkat/NF-κb-luc/PD-1 cell suspension was added to each well with 5*10^4 cells for each well, and well mixed, and 6 hrs later, Bright-glo (Promega, E2620) was applied and plates were read on Envision;
4. the reading of each well treated with the compound was compared with the reading of each well treated with DMSO to obtain the activation fold of the compound; and
5. EC50 values of compounds and positive compounds of the examples of the present invention were determined by non-linear regression analysis of activation folds at different compound concentrations.

interaction between PD-1 and PD-L1 expressed on cell surfaces, sequence (Q9NZQ7 19-290): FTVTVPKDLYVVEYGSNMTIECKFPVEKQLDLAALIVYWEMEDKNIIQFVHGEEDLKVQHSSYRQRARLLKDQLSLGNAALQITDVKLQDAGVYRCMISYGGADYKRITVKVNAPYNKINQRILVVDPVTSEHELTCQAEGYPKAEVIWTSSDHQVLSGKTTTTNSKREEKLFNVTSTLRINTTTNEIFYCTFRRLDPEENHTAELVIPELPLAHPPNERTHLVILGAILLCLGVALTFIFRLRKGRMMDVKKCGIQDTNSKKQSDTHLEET
interaction between PD-1 and PD-L1, sequence (Q9NZQ7 19-238): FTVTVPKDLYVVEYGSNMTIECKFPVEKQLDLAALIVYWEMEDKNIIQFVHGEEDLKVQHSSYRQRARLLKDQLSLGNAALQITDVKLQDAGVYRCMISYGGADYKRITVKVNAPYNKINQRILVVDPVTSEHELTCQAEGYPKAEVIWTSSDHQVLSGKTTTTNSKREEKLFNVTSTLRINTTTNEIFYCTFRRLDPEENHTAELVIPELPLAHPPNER

Row | SMILES | IC50 [1] [nM] | EC50 [2] [nM]
1 | COCCNCc1cnc(C(=O)Nc2cccc(-c3cccc(NC(=O)c4cc(C)c(CNCCOC)cn4)c3C)c2C)cc1C [Example 7, N,N′-(2,2′-dimethyl-[1,1′-biphenyl]-3,3′-diyl)bis(5-(((2-methoxyethyl)amino)methyl)-4-methylpicolinamide)] | 0.096 | 139
2 | Cc1cc(C(=O)Nc2cccc(-c3cccc(NC(=O)c4cc(C)c(CN5CCOCC5)cn4)c3C)c2C)ncc1CN1CCOCC1 [Example 9, N,N′-(2,2′-dimethyl-[1,1′-biphenyl]-3,3′-diyl)bis(4-methyl-5-(morpholinomethyl)picolinamide)] | 3.8 | > 10000
3 | Cc1cc(C(=O)Nc2cccc(-c3cccc(NC(=O)c4cc(C)c(CNCC5(O)CC5)cn4)c3C)c2C)ncc1CNCC1(O)CC1 [Example 10, N,N′-(2,2′-dimethyl-[1,1′-biphenyl]-3,3′-diyl)bis(5-((((1-hydroxycyclopropyl)methyl)amino)methyl)-4-methylpicolinamide)] | 0.28 | 50
4 | Cc1cc(C(=O)Nc2cccc(-c3cccc(NC(=O)c4cc(C)c(CN5CC(C)(O)C5)cn4)c3C)c2C)ncc1CN1CC(C)(O)C1 [Example 11, N,N′-(2,2′-dimethyl-[1,1′-biphenyl]-3,3′-diyl)bis(5-((3-hydroxy-3-methylazetidin-1-yl)methyl)-4-methylpicolinamide)] | 0.6 | 134
5 | Cc1cc(C(=O)Nc2cccc(-c3cccc(NC(=O)c4cc(C)c(CN5CCCC5)cn4)c3C)c2C)ncc1CN1CCCC1 [Example 12, N,N′-(2,2′-dimethyl-[1,1′-biphenyl]-3,3′-diyl)bis(4-methyl-5-(pyrrolidin-1-ylmethyl)picolinamide)] | 1.9 | 594
6 | Cc1cc(C(=O)Nc2cccc(-c3cccc(NC(=O)c4cc(C)c(CN5CC[C@@H](O)C5)cn4)c3C)c2C)ncc1CN1CC[C@@H](O)C1 [Example 13, N,N′-(2,2′-dimethyl-[1,1′-biphenyl]-3,3′-diyl)bis(5-(((R)-3-hydroxypyrrolidin-1-yl)methyl)-4-methylpicolinamide)] | 0.13 | 109
7 | Cc1cc(C(=O)Nc2cccc(-c3cccc(NC(=O)c4cc(C)c(CN5CCC(F)(F)C5)cn4)c3C)c2C)ncc1CN1CCC(F)(F)C1 [Example 14, N,N′-(2,2′-dimethyl-[1,1′-biphenyl]-3,3′-diyl)bis(5-((3,3-difluoropyrrolidin-1-yl)methyl)-4-methylpicolinamide)] | 227 | –
8 | Cc1cc(C(=O)Nc2cccc(-c3cccc(NC(=O)c4cc(C)c(CN5CCNC(=O)C5)cn4)c3C)c2C)ncc1CN1CCNC(=O)C1 [Example 17, N,N′-(2,2′-dimethyl-[1,1′-biphenyl]-3,3′-diyl)bis(4-methyl-5-((3-oxopiperazin-1-yl)methyl)picolinamide)] | 1.5 | > 10000
9 | Cc1cc(C(=O)Nc2cccc(-c3cccc(NC(=O)c4cc(C)c(CN[C@@H]5CCOC[C@H]5O)cn4)c3C)c2C)ncc1CN[C@@H]1CCOC[C@H]1O [Example 18, N,N′-(2,2′-dimethyl-[1,1′-biphenyl]-3,3′-diyl)bis(5-((((3S,4R)-3-hydroxytetrahydro-2H-pyran-4-yl)amino)methyl)-4-methylpicolinamide)] | 0.34 | 209
10 | Cc1cc(C(=O)Nc2cccc(-c3cccc(NC(=O)c4cc(C)c(CN[C@H]5CC[C@H](O)CC5)cn4)c3C)c2C)ncc1CN[C@H]1CC[C@H](O)CC1 [Example 19, N,N′-(2,2′-dimethyl-[1,1′-biphenyl]-3,3′-diyl)bis(5-((((1r,4r)-4-hydroxycyclohexyl)amino)methyl)-4-methylpicolinamide)] | 0.15 | 86
11 | COc1cc(C(=O)Nc2cccc(-c3cccc(NC(=O)c4cc(OC)c(CN5CC6(CCO6)C5)cn4)c3C)c2C)ncc1CN1CC2(CCO2)C1 [Example 57] | 0.36 | –

Other lines, results leading:

Row | IC50 [1] [nM] | EC50 [2] [nM] | SMILES
12 | 0.18 | 109 | COc1cc(C(=O)Nc2cccc(-c3cccc(NC(=O)c4cc(OC)c(CN[C@H](CO)C(=O)O)cn4)c3C)c2C)ncc1CN[C@H](CO)C(=O)O [Example 2, (2R,2′R)-2,2′-((((((2,2′-dimethyl-[1,1′-biphenyl]-3,3′-diyl)bis (azanediyl))bis(carbonyl))bis(4-methoxypyridine-6,3-diyl))bis(methylene))bis (azanediyl))bis(3-hydroxypropanoic acid)]
13 | 0.79 | 658 | Cc1c(NC(=O)c2ccc(CN[C@H](CO)C(=O)O)cn2)cccc1-c1cccc(NC(=O)c2ccc(CN[C@H](CO)C(=O)O)cn2)c1C [Example 6, (2R,2′R)-2,2′-((((((2,2′-dimethyl[1,1′-biphenyl]-3,3′-diyl)bis(azanediyl))bis(carbonyl))bis(pyridine-6,3-diyl))bis(methylene))bis(azanediyl))bis (3-hydroxypropanoic acid)]
14 | 0.83 | 511 | Cc1cc(C(=O)Nc2cccc(-c3cccc(NC(=O)c4cc(C)c(CNC5CC5)cn4)c3C)c2C)ncc1CNC1CC1 [Example 15, N,N′-(2,2′-dimethyl-[1,1′-biphenyl]-3,3′-diyl)bis(5-((cyclopropylamino)methyl)-4-methyipicolinamide)]
15 | 0.14 | 310 | CC(=O)NCCNCc1cnc(C(=O)Nc2cccc(-c3cccc(NC(=O)c4cc(C)c(CNCCNC(C)=O)cn4)c3C)c2C)cc1C [Example 16, N,N′-(2,2′-dimethyl-[1,1′-biphenyl]-3,3′-diyl)bis(5-(((2-acetamidoethyl)amino)methyl)-4-methylpicolinamide)]
16 | 0.36 | 4220 | COC(=O)[C@@H](CO)NCc1cnc(C(=O)Nc2cccc(-c3cccc(NC(=O)c4cc(C)c(CN[C@H](CO)C(=O)OC)cn4)c3C)c2C)cc1C [Example 20, dimethyl 2,2′-((((((2,2′-dimethyl-[1,1′-biphenyl]-3,3′-diyl)bis (azanediyl))bis(carbonyl))bis(4-methylpyridine-6,3-diyl))bis(methylene))bis(azanediyl))(2R,2′R)-bis(3-hydroxypropanoate)]
17 | 0.66 | 83 | Cc1cc(C(=O)Nc2cccc(-c3cccc(NC(=O)c4cc(C)c(CN[C@H](CO)C(=O)O)cn4)c3C)c2C)ncc1CN[C@H](CO)C(=O)O [Example 21, (2R,2′R)-2,2′-((((((2,2′-dimethyl-[1,1′-biphenyl]-3,3′-diyl)bis(azanediyl))bis(carbonyl))bis(4-methylpyridine-6,3-diyl))bis(methylene))bis(azanediyl)) bis(3-hydroxypropaitoic acid)]
18 | 0.28 | 5170 | COC(=O)[C@H](CO)NCc1cnc(C(=O)Nc2cccc(-c3cccc(NC(=O)c4cc(C)c(CN[C@@H](CO)C(=O)OC)cn4)c3C)c2C)cc1C [Example 22, dimethyl 2,2′-((((((2,2′-dimethyl-[1,1′-biphenyl]-3,3′-diyl)bis(azanediyl))bis(carbonyl))bis(4-methylpyridine-6,3-diyl))bis(methylene))bis(azanediyl)) (2S,2′S)-bis(3-hydroxypropanoate)]
19 | 0.31 | 249 | Cc1cc(C(=O)Nc2cccc(-c3cccc(NC(=O)c4cc(C)c(CN[C@@H](CO)C(=O)O)cn4)c3C)c2C)ncc1CN[C@@H](CO)C(=O)O [Example 23, (2S,2′S)-2,2′-((((((2,2′-dimethyl-[1,1′-biphenyl]3,3′-diyl)bis(azanediyl))bis(carbonyl))bis(4-methylpyridine-6,3-diyl))bis(methylene))bis(azanediyl))bis (3-hydroxypropanoic acid)]
20 | 3.2 | 1050 | COC(=O)CNCc1cnc(C(=O)Nc2cccc(-c3cccc(NC(=O)c4cc(C)c(CNCC(=O)OC)cn4)c3C)c2C)cc1C [Example 24, dimethyl 2,2′-((((((2,2′-dimethyl-[1,1′-biphenyl]-3,3′-diyl)bis(azanediyl))bis(carbonyl))bis(4-methylpyridine-6,3-diyl))bis (methylene))bis(azanediyl))diacetate]
21 | 0.37 | 124 | Cc1cc(C(=O)Nc2cccc(-c3cccc(NC(=O)c4cc(C)c(CNCC(=O)O)cn4)c3C)c2C)ncc1CNCC(=O)O [Example 25]
